Laboratory results taken from PubChem BioAssay AID1963984 (Molecular Pharmacology Branch, DTP, NCI, 2024).

Test system: 233499-124-R-J3-PDC spheroids with HUVEC/MSC, viability
Assay: Anticancer human tumor 233499-124-R-J3-PDC patient-derived colon adenocarcinoma cell line growth inhibition [PI3K]
Conditions: for IC50: curve of first compound; for viability, T/C: stronger effect = lower value
From the text: Combinatorial screen of targeted agents with the PI3K inhibitors inavolisib, alpelisib, duvelisib, and copanlisib in multi-cell type tumor spheroids
A high-throughput screen of multi-cell type tumor spheroids was designed to identify active combinations of targeted small molecules and PI3K pathway inhibitors. Complex spheroids include a stromal component modeled by human endothelial cells (HUVEC) and fibroblasts modeled by human mesenchymal stem cells (MSCs). The concentration ranges selected for each drug and investigational agent were based upon clinically achievable concentrations if the clinical Cmax of the agent was known.
Compounds. The drugs and investigational agents: inavolisib (NSC800729), alpelisib (NSC765974), duvelisib (NSC772469), copanlisib (NSC816437), ipatasertib (NSC767898), afuresertib (NSC778305), talazoparib (NSC767125), sapanisertib (NSC764658), selumetinib (NSC741078), tovorafenib (DAY101, NSC766906), vemurafenib (NSC761431), ravoxertinib (NSC781343), sotorasib (NSC818433), MRTX1133 (NSC 836407), abemaciclib (NSC 768073), palbociclib (NSC758247), venetoclax (NSC 766270), SY5609 (NSC837396), enzalutamide (NSC755605), and darolutamide (NSC825331), were obtained from the National Cancer Institute (NCI) Developmental Therapeutics Program Chemical Repository. The FDA-approved anticancer drug set is available from the NCI Developmental Therapeutics Program. […] The stock solutions were prepared in dimethyl sulfoxide (DMSO, Sigma-Aldrich, St. Louis, MO, cat. D2650) at 800-fold the tested concentration and stored at -70 degrees C prior to their use. All drugs and investigational agents were tested over a range starting from a high concentration at or near the clinical Cmax and decreasing in half-log increments. If the clinical Cmax for an agent had not been determined, the highest concentration tested was 10 microM.
Cell Culture. All cells were maintained in an incubator at 37 degrees C and 5% CO2 with 95% humidity. The PDC lines were cultured according to standard operating procedures established by the NCI PDMR (https://pdmr.cancer.gov/sops/default.htm). All PDCs were thawed and cultured in Matrigel-coated flasks prepared with a working solution of 1X Ham's F-12 nutrient mix, without supplementation (Invitrogen, Waltham, MA, cat. 11765054), 100 U/mL penicillin-streptomycin (Invitrogen, cat. 15140122), and 2.5% Matrigel (Corning Inc., Corning, NY, cat. 354248) for the first three passages. The 354836-022-R-J1-PDC, 475296-252-R-J1-PDC, and 997726-040-R-J2-PDC lines were cultured in 6A media, which includes advanced DMEM/F-12 (Thermo Fisher Scientific, cat. 12634028), 10 mM HEPES (Thermo Fisher Scientific, cat. 15630080), 1X GlutaMAX supplement (Thermo Fisher Scientific, cat. 35050061), 0.1 mg/mL primocin (InvivoGen, San Diego, CA, cat. ant-pm-2), 10% defined fetal bovine serum, heat inactivated (HyClone Laboratories Inc., Logan, UT, cat. SH30070.03HI), 50% L-WRN conditioned media (ATCC, cat. CRL-3276), 1.25 mM N-Acetyl-L-cysteine (Sigma-Aldrich, cat. A9165), 10 mM nicotinamide (Sigma-Aldrich, cat. N0636), 1X B-27 supplement (Thermo Fisher Scientific, cat. 17504044), 1X N-2 supplement (Thermo Fisher Scientific, cat. 17502048), and 10 microM Y-27632 dihydrochloride (Tocris Bioscience, Bristol, United Kingdom, cat. 1254). The 624824-186-R-J2-PDC line was cultured in 6C/Colon 1B media, which includes all 6A media components plus 50 ng/mL human EGF recombinant protein (Thermo Fisher Scientific, cat. PHG0311). […]
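Note: spheroids exposed to agents for seven days before readout.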
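Throughout, for viability, T/C: percent viability relative to DMSO vehicle control taken as 100%.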

## CC(=O)c1c(C)c2cnc(Nc3ccc(N4CCNCC4)cn3)nc2n(C2CCCC2)c1=O + CC(Nc1ccc2c(c1)OCCn1cc(N3C(=O)OCC3C(F)F)nc1-2)C(N)=O
Second compound 0.00316 µM
  IC50: > 0.1 µM
Second compound 0.01 µM
  IC50: > 0.1 µM
Second compound 0.0316 µM
  IC50: > 0.1 µM
Second compound 0.1 µM
  IC50: > 0.1 µM
Second compound 0.316 µM
  IC50: > 0.1 µM
Second compound 1 µM
  IC50: > 0.1 µM
Second compound 0.00316 µM, first compound 0.000316 µM
  viability, T/C: 97.3%
Second compound 0.00316 µM, first compound 0.001 µM
  viability, T/C: 83.4%
Second compound 0.00316 µM, first compound 0.00316 µM
  viability, T/C: 95.7%
Second compound 0.00316 µM, first compound 0.01 µM
  viability, T/C: 73.7%
Second compound 0.00316 µM, first compound 0.0316 µM
  viability, T/C: 87.8%
Second compound 0.00316 µM, first compound 0.1 µM
  viability, T/C: 74.2%
Second compound 0.01 µM, first compound 0.000316 µM
  viability, T/C: 86.4%
Second compound 0.01 µM, first compound 0.001 µM
  viability, T/C: 87.5%
Second compound 0.01 µM, first compound 0.00316 µM
  viability, T/C: 80.9%
Second compound 0.01 µM, first compound 0.01 µM
  viability, T/C: 89.7%
Second compound 0.01 µM, first compound 0.0316 µM
  viability, T/C: 86%
Second compound 0.01 µM, first compound 0.1 µM
  viability, T/C: 70.6%
Second compound 0.0316 µM, first compound 0.000316 µM
  viability, T/C: 88.8%
Second compound 0.0316 µM, first compound 0.001 µM
  viability, T/C: 88.4%
Second compound 0.0316 µM, first compound 0.00316 µM
  viability, T/C: 76.7%
Second compound 0.0316 µM, first compound 0.01 µM
  viability, T/C: 89%
Second compound 0.0316 µM, first compound 0.0316 µM
  viability, T/C: 93.2%
Second compound 0.0316 µM, first compound 0.1 µM
  viability, T/C: 71.2%
Second compound 0.1 µM, first compound 0.000316 µM
  viability, T/C: 82.6%
Second compound 0.1 µM, first compound 0.001 µM
  viability, T/C: 84.4%
Second compound 0.1 µM, first compound 0.00316 µM
  viability, T/C: 81.2%
Second compound 0.1 µM, first compound 0.01 µM
  viability, T/C: 101%
Second compound 0.1 µM, first compound 0.0316 µM
  viability, T/C: 90.2%
Second compound 0.1 µM, first compound 0.1 µM
  viability, T/C: 65.2%
Second compound 0.316 µM, first compound 0.000316 µM
  viability, T/C: 83%
Second compound 0.316 µM, first compound 0.001 µM
  viability, T/C: 79.5%
Second compound 0.316 µM, first compound 0.00316 µM
  viability, T/C: 76.9%
Second compound 0.316 µM, first compound 0.01 µM
  viability, T/C: 67.2%
Second compound 0.316 µM, first compound 0.0316 µM
  viability, T/C: 79.3%
Second compound 0.316 µM, first compound 0.1 µM
  viability, T/C: 59.6%
Second compound 1 µM, first compound 0.000316 µM
  viability, T/C: 76.7%
Second compound 1 µM, first compound 0.001 µM
  viability, T/C: 68.7%
Second compound 1 µM, first compound 0.00316 µM
  viability, T/C: 50%
Second compound 1 µM, first compound 0.01 µM
  viability, T/C: 55.3%
Second compound 1 µM, first compound 0.0316 µM
  viability, T/C: 60.1%
Second compound 1 µM, first compound 0.1 µM
  viability, T/C: 48.9%
